The subject of one test is IL-22. In words: Anti-CD3/CD28+IL-4-induced IL-22 on PBMCs. The test is classed as cell-based. Particulars: Homo sapiens, PBMC, anti-CD3/CD28 beads + 50 ng/mL IL-4, 48 hours, ELISA, read-out: TCR/IL-4-PBMCs IL-22 IC50. On the procedure:
(§1) Cryopreserved human Peripheral Blood Mononuclear cells (PBMCs) from healthy adult donors were obtained from Zen Bio, Inc (Cat No. SER-PBMC-F). Cells were cultured in 96-well plates with lymphocyte media (Cat No. LYMPH-1) and were pre-treated with test materials (≤100 μM) for 2 hours and later co-treated with test materials and anti-CD3/CD28 beads (Thermo-Fisher; Cat No. 11131D) and 50 ng/mL recombinant human IL-4 (R&D Systems® #204-IL) for 48 hours at 37° C. and 5% CO2. After incubation, cell media supernatants were harvested and used to measure cytokine levels (IL-22, IL-31) using ELISA kits (R&D Systems® #DY782, #DY2824). Results were represented as percent of inhibition relative to untreated and anti-CD3/CD28+IL-4 only treated cells. IC50 values were determined by non-linear regression analysis using the four-parameter logistic equation.
Background: In an ELISA, binding on a coated surface is turned into a signal by an enzyme label.

A further test has as its system IL-10. In words: T-cell receptor (anti-CD3/CD28)-induced IL-10 on PBMCs. Conditions: Homo sapiens, PBMC, anti-CD3/CD28 beads, 24 hours, ELISA, read-out: TCR-PBMCs IL-10 Protein IC50. The test is classed as cell-based. On the procedure: as §1, with “at 1:0.4 PBMC:bead ratio” for “and 50 ng/mL recombinant human IL-4 (R&D Systems® #204-IL)”, “24” for “48”, “(IL-4, IL-5, IL-10)” for “(IL-22, IL-31)”, “(BD Biosciences® #555194, #555157; R&D” for “(R&D”, “#DY317).” for “#DY782, #DY2824).”, “anti-CD3/CD28 beads-only” for “anti-CD3/CD28+IL-4 only”

Another test relates to IL-13. In words: Concanavalin-A-induced IL-13 on PBMCs. The test is classed as cell-based. Particulars: Homo sapiens, PBMC, ConA, 24 hours, ELISA.
The test system of a further test is IL-17. The experiment in a line: Concanavalin-A-induced IL-17 on PBMCs. The test is classed as cell-based. Particulars: Homo sapiens, PBMC, ConA, 24 hours, ELISA.
Another test relates to IL-1b. The experiment in a line: P. acnes-induced IL-1b protein on human PBMCs (ELISA). It is filed as cell-based. Conditions: PBMC, PBMCs + live P. acnes 1:1, test material 30 PM, 24 hours. On the procedure: (§2) Cryopreserved human Peripheral Blood Mononuclear cells (PBMCs) from healthy adult donors were obtained from Zen Bio, Inc (Cat No. SER-PBMC-F). Cells were cultured in 12-well plates with lymphocyte media (Cat No. LYMPH-1) and incubated with test materials ([…]) and live P. acnes (ATCC® 6919TM) at 1:1 PBMC: P. acnes bacteria ratio for 24 hours at 37° C. and 5% CO2. After incubation, cell media supernatants were harvested and used to measure pro-inflammatory cytokine levels (IL-8, TNF-α, IL-1b, IL-17) using ELISA kits (BD Biosciences® #557966, #555212, #555244; R&D Systems® #DY317). Total RNA was extracted from cells using the RNAqueous® kit (Ambion®; Cat No. 1912) and cDNA was obtained using the High Capacity RNA-to-cDNA kit (Applied Biosystems®; Cat No. 4387406). Quantitative PCR (qPCR) was performed using the TaqMan® Fast Advanced Master Mix (Applied Biosystems®; Cat No. 4444556) and specific TaqMan®-probes human gene primers CXCL8 (IL-8), IL1B (IL-1b), TNF (TNF-α), IL17A (IL-17A) and GAPDH to calculate the relative gene fold expression change per treatment. Gene expression analysis was performed using the comparative Ct method (also known as the 2-[delta][delta]Ct) approach by comparing the Ct values of P. acnes-only treated cells with the untreated samples and normalized to GAPDH gene expression as endogenous housekeeping gene.

A further test concerns TNF-α. The experiment in a line: P. acnes-induced TNF-α protein on human PBMCs (ELISA). Particulars: PBMCs + live P. acnes 1:1, test material 30 PM, 24 hours. It is filed as cell-based. On the procedure:
as §2

In test [1] the test system is P. acnes (ATCC 6919) biofilms. In words: P. acnes biofilm eradication (MBEC), crystal violet. It is filed as cell-based, Propionibacterium acnes. Particulars: 24 hours, ≥80% eradication vs vehicle. On the procedure:
P. acnes (ATCC® 6919™) was cultured as described above. Bacteria biofilms were established by seeding P. acnes cultures in 96-well plates and incubating for 24 hours without agitation. Later, biofilms were incubated with test materials for 24 hours. Remaining biofilms were washed and stained with crystal violet. […] The absorbance was measured at 595 nm in a microplate reader. […] Results from disk diffusion susceptibility testing (Kirby-Bauer Method) after 72 hours incubation were also obtained.

A further test concerns IL17A (IL-17A). The experiment in a line: P. acnes-induced IL-17 gene on human PBMCs (qPCR). The test is classed as cell-based. Conditions: PBMC, PBMCs + live P. acnes 1:1, test material 30 PM, 24 hours. On the procedure: as §2
For a further test, the system named is IL-8. The experiment in a line: Peptidoglycan (PGN)-induced IL-8 on NHEKs. It is filed as cell-based, human. Conditions: for IC50: Homo sapiens, NHEK, PGN 10 μg/mL, 24 hours, ELISA, read-out: PGN-NHEK 1L-8 Protein IC50; for PGN-induced IL-8 production: cultured human keratinocytes exposed to peptidoglycan (PGN). On the procedure: Normal human epidermal keratinocytes (NHEKs) from neonatal donors were obtained from Thermo-Fisher (Cat No. C-001-5C). Cells were cultured in 96-well plates for 24 hours with EpiLife media (Cat No. MEPI500CA) supplemented with keratinocytes growth supplement (Cat No. S0015). On Day 2, media was removed and replaced with supplement-depleted medium for 24 hours. On Day 3, media was removed and cells were pre-treated with test materials (≤1 μM) for 2 hours and later co-treated with test materials and PGN (Sigma Aldrich, Cat No. 77140) at 10 μg/mL and incubated for 24 hours at 37° C. and 5% CO2. PGN is a TLR-2 agonist. After incubation, cell media supernatants were harvested and used to measure pro-inflammatory cytokine levels (IL-8) using ELISA kit (BD Biosciences® #555244). Results were represented as percent of inhibition relative to untreated and PGN-only treated cells. IC50 values were determined by non-linear regression analysis using the four-parameter logistic equation.

A further test deals with TNF (TNF-α). In words: P. acnes-induced TNF-α gene on human PBMCs (qPCR). The test is classed as cell-based. Conditions: PBMC, PBMCs + live P. acnes 1:1, test material 30 PM, 24 hours, read-out: TNFa-Gene % inhibition. On the procedure:
as §2
In general terms: Quantitative PCR measures a nucleic acid by following its amplification.

The structures appear in SMILES notation.

With `N#Cc1ccc(Oc2ccc3c(c2)COB3O)cc1` [AN2728, reference compound], the IC50 in the test on IL-22 was 2 µM; in the test with IL-10, 9 µM; in the test with IL-13, 3.8 µM; in the test with IL-17 it was 3.1 µM.

What is called inhibition is the relative decrease from the control value, in per cent. Take `C/C(=C\CSCC(NC(=O)NCC(=O)O)C(=O)O)CCCC(C)CCCC(C)CCCC(C)C` (stereo not shown) [A]: the IC50 with IL-10 was 42 µM. In the test on IL-1b, the inhibition at 30 pM was 38%.

Consider `C/C(=C\CSC[C@H](NC(=O)N(C)CC(=O)O)C(=O)O)CCCC(C)CCCC(C)CCCC(C)C` (stereo partly drawn) [Compound C, (2R)-2-{[(carboxymethyl)(methyl)carbamoyl]amino}-3-{[(2E)-3,7,11,15-tetramethylhexadec-2-en-1-yl]sulfanyl}propanoic acid], for which the IC50 is over 25 µM in the test on IL-22; 34 µM in the test with IL-10; 8.2 µM with IL-13; 0.25 µM in the test on IL-8; 0.5 µM in the test on IL-17. Further, the TNFa-Protein % inhibition in the test on TNF-α is 0%. This compound also gave an MBEC in test [1] of 9 µg/mL. Besides, the inhibition at 30 pM in the test on IL17A (IL-17A) was found to be 0%; in the test on IL-1b, 36%; in the test on TNF (TNF-α), 0%.

As for `C/C(=C\CSC[C@H](NC(=O)N1CCC[C@H]1C(=O)O)C(=O)O)CCCC(C)CCCC(C)CCCC(C)C` (stereo partly shown) [Compound E], the IC50 in the test on IL-22 is over 25 µM; with IL-10 it was 39 µM; in the test on IL-13, 1.5 µM; with IL-8, 0.25 µM; in the test on IL-17, 11.4 µM. In the test with TNF-α, the TNFa-Protein % inhibition is 0%. In addition, the MBEC in test [1] was 12 μg/mL and (21) μM. Besides, the inhibition at 30 pM was 0% in the test on IL17A (IL-17A), 82% in the test on IL-1b and 0% with TNF (TNF-α). The “PGN-induced IL-8 production” value in the test with IL-8 is recorded as “inhibit IL-8 production”.

Consider `C/C(=C\CSCC(NC(=O)N(CC(=O)O)CC(=O)O)C(=O)O)CCCC(C)CCCC(C)CCCC(C)C` (stereo not shown) [Compound G], for which the IC50 in the test with IL-22 is over 25 µM; with IL-13, 0.02 µM; in the test on IL-8 it was 0.05 µM; in the test on IL-17, 94.2 µM. The TNFa-Protein % inhibition in the test with TNF-α came to 0%. Besides, the MBEC in test [1] is 7 μg/mL and (11) μM. The inhibition at 30 pM amounted to 0% in the test with IL17A (IL-17A), 91% in the test with IL-1b and 0% with TNF (TNF-α). Also, in the test with IL-8, the “PGN-induced IL-8 production” value is listed as “inhibit IL-8 production”.

With `C/C(=C\CSC[C@H](NC(=O)COCC(=O)O)C(=O)O)CCCC(C)CCCC(C)CCCC(C)C` (stereo partly shown) [Compound T], the IC50 is over 25 µM in the test on IL-22, 19 µM with IL-10, 0.1 µM in the test on IL-13 and 69.7 µM in the test on IL-17. In addition, the inhibition at 30 pM with IL17A (IL-17A) and with TNF (TNF-α) was 0% each time.
